In patent publication US9518038B2, “Condensation product of theanine derivative and carboxylic acid coumarin derivative, its intermediate, preparation method and use thereof” (SHANDONG YINGDONG YINGHAO BIOTECHNOLOGY, INC., priority 2012, dated 2016):
pEC50, pIC50: −log10 of the molar value.

How the values were obtained:
[1] = tested on: human colon cancer cells HT29; test: MTT growth inhibition, HT29 cells; format: cell-based; details: HT-29, 72 h after treatment, read-out: Drug concentration (IC50) at which 50% cancer cells survived
[2] = tested on: human lung cancer cells A549 xenograft; test: In-vivo growth of A549 xenografts in nude mice; set-up: species or system BALB/c nude mice; details: Mus musculus, ip, vs DMSO solvent control, read-out: Curative effect (inhibition rate %) of tumor weight; for inhibition in vivo at 60 mg/kg: 60 mg/kg intraperitoneal once a day; for inhibition in vivo at 90 mg/kg: 90 mg/kg intraperitoneal once a day
Protocol: (§1) RPMI1640 and DMEM culture solutions: Hyclone Company; inactivated fetal bovine serum: Hyclone Company, preserved at −20° C.; trypsin: Amersco Company; and 0.4% trypan blue: Sigma Company;
(§2) (3) Observation of growth of tumors in nude mice: the activities (including food intake, traits of urine and stool, mental state and the like) of the nude mice and the tumor growth time and growth situation of the transplanted tumors were observed every day, the body weight and the size of the tumors were measured once every 2-3 days. The long diameter a and the short diameter b (mm) of each tumor were measured by a vernier caliper to calculate the volume, wherein the volume V=π1/2·ab^2 (mm^3);
(§3) (4) sacrifice of animals: the mice were anesthetized and photoed after treatment experiments; the nude mice were sacrificed by breaking neck, the tumor tissues were stripped under sterile conditions and the weight of the tumors was weighed; and the effects of the drugs on pathology and toxicity of the various organs and tissues were detected.

[3] = tested on: human pancreatic cancer cells PANC-1 xenograft; test: In-vivo growth of PANC-1 xenografts in nude mice; set-up: species or system BALB/c nude mice; details: Mus musculus, ip, vs DMSO solvent control, read-out: Curative effect (inhibition rate %) of tumor weight; for inhibition in vivo at 60 mg/kg: 60 mg/kg intraperitoneal once a day; for inhibition in vivo at 90 mg/kg: 90 mg/kg intraperitoneal once a day
Protocol: as §1, §2, §3

EGFR = test: Western Blotting, EGFR level; format: cell-based; details: human liver cancer cells, Lewis lung cancer cells and other cancer cell lines and tumor tissues, read-out: Effective concentration (IC50) for inhibition of EGFR
From the text: (§4) Antibodies: primary antibodies of VEGFR, EGFR, c-Met, K-Ras, H-Ras, Akt, NF-κB, Cyclin D1, ER-alpha, Dvl-1, Dvl-2, Dvl-3, MMP-9, MMP2, β-catenin, Bcl-2, Bax, p53, p21, E-cadherin and Caspase3 protein, purchased from American Cell Signaling Technology Company and Santa Cruz Technology Company; and H3 acetylation, H4 acetylation and HDAC (HDAC3, HDAC4 and the like) Antibody Sample Kits, purchased from Cell Signaling Technology Company of the U.S.
(§5) (3) polyacrylamide gel electrophoresis (SDS-PAGE): an equal amount of protein lysate sample was used to separate protein, film transfer, and blocking, treated with appropriate primary antibodies and secondary antibodies in sequence, and the film was washed, then the color was developed with ECL kit, and a blot protein band was detected by exposure of an X-ray film; and a Gel-Pro Analyzer was used for quantitative analysis of gray degree, optical density value of the control group and the drug treatment group in various concentration were respectively compared with that of internal reference, the obtained ratios were respectively compared with the control group, and the protein expression level was semi-quantified.

[4] = tested on: human pancreatic cancer cells PANC-1; test: MTT growth inhibition, PANC-1 cells; format: cell-based; details: 72 h after treatment, read-out: Drug concentration (IC50) at which 50% cancer cells survived
HDAC4 = HDAC4 enzyme activity in nuclear extracts of human tumor xenografts of treated mice; details: second value of the pair HDAC3 and HDAC4, SAHA 25 mg/kg
Protocol: For the detection of the effect of the drugs on enzyme activity of EZH2 and HDAC of in-vivo tumors, the tumors were separately excised after 6 h of medication, total proteins and nucleoproteins were extracted separately to detect and analyze the activity of the enzyme.
(2) 50 μl of diluted sample solution was added into each reaction well, the plate was sealed with a plate-sealing film and reacted at room temperature for 30 min;
(3) the plate-sealing film was carefully peeled off, the liquid was removed, dried, 150 μl of washing liquid was added into each well, stood for 30 s, then the liquid was removed, repeated twice, and dried;
(4) 2 μl of HDAC enzyme or tumor tissue nuclear extracts was respectively uniformly mixed with 28 μl of diluted sample solution, added into the wells, the plate was sealed with the plate-sealing film and reacted at 37° C. for 60 min;
(5) the plate was washed for three times, wherein the operation was the same as that in (3); and a diluted antibody capture working solution was added into each reaction well according to 50 μl/well and reacted on a shaking bed at room temperature for 60 min;
(6) the plate was washed for four times, wherein the operation was the same as that in (3);
(7) a diluted antibody detection working solution was added into each reaction well according to 50 μl/well and reacted at room temperature for 30 min;
(8) the plate was washed for five times, wherein the operation was the same as that in (3);
a color developing agent was added according to 100 μl/well, and performed dark development for 2-10 min;
(9) 50 μl of stop solution was added into each well for stopping the reaction when the color in the well with a standard product turned blue with medium intensity, the color immediately turned yellow from blue after the addition;
(10) the light absorbance (OD value) of each well was measured in sequence at the wavelength of 450 nm; wherein the measurement should be performed within 15 min after addition of the stop solution; and

HDAC3 = test: Western Blotting, HDAC3 level; format: cell-based; details: human liver cancer cells, Lewis lung cancer cells and other cancer cell lines and tumor tissues, read-out: Effective concentration (IC50) for inhibition of HDAC3
From the text: as §4, §5

[5] = tested on: human liver cancer cells SMMC7721; test: MTT growth inhibition, SMMC7721 cells; format: cell-based; details: SMMC-7721, S-7721 (SMMC7721), 72 h after treatment, read-out: Drug concentration (IC50) at which 50% cancer cells survived
p21 = test: Western Blotting, increase of p21 level; format: cell-based; details: liver cancer cells, Lewis lung cancer cells and other cancer cell lines and tumor tissue protein lysates, 48 h treatment, read-out: Effective concentration to increase p21 by 50%
From the text: as §4, §5

VEGFR1 = test: Western Blotting, VEGFR1 level; format: cell-based; details: human liver cancer cells, Lewis lung cancer cells and other cancer cell lines and tumor tissues, read-out: Effective concentration (IC50) for inhibition of VEGFR1
From the text: as §4, §5

E-cadherin = test: Western Blotting, increase of E-cadherin level; format: cell-based; details: liver cancer cells, Lewis lung cancer cells and other cancer cell lines and tumor tissue protein lysates, 48 h treatment, read-out: Effective concentration to increase E-cadherin by 50%
From the text: as §4, §5

CCNC(=O)CCC(NC(=O)c1cc2cc([N+](=O)[O-])ccc2oc1=O)C(=O)OCC (stereo in doubt) [Compound If, (R)-2-(6-nitro-2-oxo-2H-benzopyran-3-carboxamido)-5-ethylamino-5-oxo-pentanoic acid ethyl ester]
pIC50 [1]: 3.82
inhibition in vivo at 60 mg/kg [2]: 58.6%
inhibition in vivo at 90 mg/kg [2]: 64.6%
inhibition in vivo at 60 mg/kg [3]: 53.6%
inhibition in vivo at 90 mg/kg [3]: 67.3%
pIC50 (EGFR): > 4.00
pIC50 [4]: 4.11
decrease of HDAC4 enzyme activity/inhibition rate (HDAC4; A549 tumor grown in vivo): 75%*(A549)-
decrease of HDAC4 enzyme activity/inhibition rate (HDAC4; MCF7 tumor grown in vivo): 69%*(MCF7)
decrease of HDAC4 enzyme activity/inhibition rate (HDAC4; MDA-MB231 tumor grown in vivo): 67%*(MDA-MB231)
decrease of HDAC4 enzyme activity/inhibition rate (HDAC4; SMMC7721 tumor grown in vivo): 68%*(SMMC7721);
pIC50 (HDAC3): > 4.26
pIC50 [5]: 4.21
pEC50 (p21): > 4.19
pIC50 (VEGFR1): > 4.05
pEC50 (E-cadherin): > 4.19

CCNC(=O)CCC(NC(=O)c1cc2cc(F)ccc2oc1=O)C(=O)OCC (stereo in doubt) [Compound Ie, (R)-2-(6-F-2-oxo-2H-benzopyran-3-carboxamido)-5-ethylamino-5-oxo-pentanoic acid ethyl ester]
pIC50 [1]: 3.62
inhibition in vivo at 60 mg/kg [2]: 55.5%
inhibition in vivo at 90 mg/kg [2]: 61.5%
inhibition in vivo at 60 mg/kg [3]: 56.6%
inhibition in vivo at 90 mg/kg [3]: 64.6%
pIC50 (EGFR): > 3.96
pIC50 [4]: 4.14
decrease of HDAC4 enzyme activity/inhibition rate (HDAC4; A549 tumor grown in vivo): 72%*(A549)-
decrease of HDAC4 enzyme activity/inhibition rate (HDAC4; MCF7 tumor grown in vivo): 67%*(MCF7)
decrease of HDAC4 enzyme activity/inhibition rate (HDAC4; MDA-MB231 tumor grown in vivo): 62%*(MDA-MB231)
decrease of HDAC4 enzyme activity/inhibition rate (HDAC4; SMMC7721 tumor grown in vivo): 65%*(SMMC7721);
pIC50 (HDAC3): > 4.26
pIC50 [5]: 4.21
pEC50 (p21): > 4.00
pIC50 (VEGFR1): > 3.96
pEC50 (E-cadherin): > 4.19
